In data set [1] the test system is HBV DNA in HepG2.2.15 cells. In words: In vitro cell HBV DNA inhibitory activity (anti-HBV activity) in HepG2.2.15 cells. The class given is cell-based. To be noted: Hepatitis B virus, 144 h; anti-HBV activity in HepG2.2.15 cells, 6 days treatment, intracellular capsid HBV DNA by qPCR; read-out: EC50. How it is done: (§1) A bottle of HepG2.2.15 or HepAD38 cells in good exponential growth state was taken, washed once by adding 5 mL PBS, and then thereto was added 3 mL trypsin. After digesting at room temperature for 5 min, 2 mL trypsin was discarded, and then the sample was placed in a cell culture incubator and digested for 10 min. The cells were taken out from time to time and observed under a microscope (whether the cells were individually round and there was no adhesion between the cells). 10 mL complete medium was added to terminate the digestion. After pipetting into a single cell suspension, 10 μL of the cell suspension was taken out for cell counting with a cell counter, and then diluted with a complete medium and adjusted to a cell density of 1*10^5 cells/mL. Then the cell suspension was seeded at 1 mL/well in a 24-well plate with a multi-channel pipette (the 24-well plate was coated with 50 μg/mL Collagen I solution in advance), and cultured in a constant temperature CO2 incubator for 48 h.
(§2) Different compounds dissolved in DMSO were subjected to two-fold gradient dilution (10 concentrations in total) with complete medium. The compound was added, and fresh medium containing the compound was used to replace the spent medium every 72 hours. The cells were treated with the compound for 6 days. After the supernatant was siphoned off, 300 μL lysate (10 mM Tris-HCl, 1 mM EDTA, and 1% NP-40) was added to each well. After lysing at room temperature for 10 min, DNA was extracted, and HBV DNA in the intracellular viral capsid was measured by real-time fluorescence quantitative PCR. The inhibition rate was calculated based on the Ct value, and the EC50 value was calculated by the four-parameter method.
(Real-time PCR tracks product formation cycle by cycle.)

Data set [2] is described as follows: Stability of human liver microsomes in vitro. The class given is in vitro ADME. How it is done: (§3) 300 μL of a final incubation system contains 30 μL of liver microsomes (protein concentration: 0.15 mg/mL), 30 μL NADPH+MgCl2, 3 μL substrate (formulated with acetonitrile), and 237 μL PBS buffer. Duplicate incubation systems of 0.3 mL each were formulated for each species. A total volume of 270 μL of a uniformly mixed solution of the substrate and the enzyme was formulated in each tube, the solution and NADPH were pre-incubated at 37° C. for 5 minutes, respectively. Then 30 μL of the mixed solution of NADPH+MgCl2 was added for reaction. 50 μL of the reaction solution was taken out at 0, 10, 30, and 60 mins, and the reaction was terminated with 300 μL of ice acetonitrile containing an internal standard.
(§4) Sample pre-treatment: To 50 μL of the incubated sample was added 300 μL of ice acetonitrile containing diazepam as an internal standard and then precipitated. After vortexing for 5 minutes, the sample was centrifugated (12000 rpm, 4° C.) for 10 minutes. 75 μL of the supernatant was pipetted into a 96-well plate, and then diluted with 75 μL ultrapure water and mixed uniformly. 0.5 μL of the resulting solution was injected and analyzed by LC-MS/MS.

The subject of a further data set is HBV DNA in HepAD38 cells. Description: In vitro cell HBV DNA inhibitory activity (anti-HBV activity) in HepAD38 cells. To be noted: Hepatitis B virus, 144 h; anti-HBV activity in HepAD38 cells, 6 days treatment, intracellular capsid HBV DNA by qPCR; read-out: EC50. Type of data set: cell-based. The protocol: as §1, §2
The nature of data set [3]: In vitro cytotoxicity (CCK-8) in HepAD38 cells. Type of data set: cell-based. The following applies: human. How it is done:
(§5) A bottle of HepG2.2.15 or HepAD38 cells in good exponential growth state was taken, washed once by adding 5 mL PBS, and then thereto was added 3 mL trypsin. The sample was digested in a cell culture incubator, and taken out from time to time and observed under a microscope. When the cells just fell off, 1 mL trypsin was discarded. The residual liquid was placed in a cell culture incubator at 37° C. and digested for 8-15 min. The cells were taken out and observed under a microscope (whether the cells were individually round and there was no adhesion between the cells). 5 mL MEM medium was added for cell resuspension. The cells were then subjected to cell counting with a cell counter, diluted with a complete medium, and adjusted to a cell density of 2*10^5 cells/mL. Then the cells were seeded at 100 μL/well in a 96-well plate with a multi-channel pipette (the 96-well plate was coated with 50 μg/mL Collagen I solution in advance), and cultured in a constant temperature CO2 incubator for 24 h. The cells were treated by drug administration, and fresh medium containing the compound was used to replace the spent medium every 3 days. To control wells was added a drug-free medium containing 0.5% DMSO, and a control well containing a common medium was set up. 6 days after the administration, CCK-8 was added at 10 μL/well. After 1 to 2 hours, the absorbance was detected with microplate reader at 450 nm, and the inhibition rate and the CC50 were calculated.

Data set [4] can be described thus: In vitro cytotoxicity (CCK-8) in HepG2.2.15 cells. To be noted: human. The class given is cell-based. The protocol: as §5
Data set [5] in a line: Stability of rat liver microsomes in vitro. Type of data set: in vitro ADME. How it is done:
as §3, §4

Data set [6] is described as follows: Solubility in PBS buffer at pH 7.4. To be noted: aqueous buffer, PBS buffer pH 7.4, 25° C. The class given is physicochemical. The protocol:
[…] After standing at 25° C. for 16 hours, the system was centrifugated (12000 rpm, room temperature) for 10 min. 20 μL of the supernatant was taken out, and the reaction was terminated with 400 μL of acetonitrile containing an internal standard (diazepam 20 ng/mL). 30 μL of the supernatant was pipetted, and 150 μL of 50% acetonitrile aqueous solution was added thereto for dilution and mixed uniformly. 0.5 μL of the resulting solution was injected for analysis.

A short description of data set [7]: Stability of mouse liver microsomes in vitro. Type of data set: in vitro ADME. How it is done: as §3, §4
(In general: Microsomes from liver hold many membrane-bound enzymes, among them those of drug oxidation.)

In brackets after ≈: the same amount, converted by molar mass. A value given as a limit tells only on which side of the number the result lay.

`C#CCNC(=O)C(=O)c1c(C)c(C(=O)Nc2ccc(F)c(C#N)c2)c(C)n1C` [Example 1, N-(3-cyano-4-fluorophenyl)-1,2,4-trimethyl-5-(2-oxo-2-(prop-2-yn-1-ylamino)acetyl)-1H-pyrrole-3-carboxamide]: the EC50 (in data set [1]; in the data set on HBV DNA in HepAD38 cells) was 0.01 to 0.05 µM each time. For the same molecule, the results for the “Remaining (%) at 60 min” value in data set [2] and in data set [5] were 69% and 44%, respectively. For the same molecule, the CC50 at 6 days in data set [3] and in data set [4] was above 100 µM each time.

With `Cc1c(C(=O)Nc2ccc(F)c(C#N)c2)c(C)n(C)c1C(=O)C(=O)NC12CC(C1)C2` [Example 2, 5-(2-(Bicyclo[1.1.1]pentan-1-ylamino)-2-oxoacetyl)-N-(3-cyano-4-fluorophenyl)-1,2,4-trimethyl-1H-pyrrole-3-carboxamide], the EC50 (in data set [1]; with HBV DNA in HepAD38 cells) was below 0.01 µM in each case. In addition, in data set [3], the CC50 at 6 days is above 100 µM. The concentration in solution in data set [6] (solubility at 16 h) was 22.1 µM (≈ 9.03 µg/mL).

On to `Cc1c(C(=O)Nc2ccc(F)c(C#N)c2)c(C)n(C)c1C(=O)C(=O)NC(C)(C)CO` [Example 8, N-(3-cyano-4-fluorophenyl)-5-(2-((1-hydroxy-2-methylpropan-2-yl)amino)-2-oxoacetyl)-1,2,4-trimethyl-1H-pyrrole-3-carboxamide], for which the EC50 (in data set [1]; in the data set with HBV DNA in HepAD38 cells) was below 0.01 µM each time. Moreover, the entries for the “Remaining (%) at 60 min” value in data set [2] and in data set [5] were 70.6% and 52.0%, respectively. Also, the CC50 at 6 days in data set [3] and in data set [4] was above 100 µM each time. In data set [6], the solubility at 16 h came to 80.9 µM (≈ 33.5 µg/mL).

Turning to `COC(=O)C(C)(C)NC(=O)C(=O)c1c(C)c(C(=O)Nc2ccc(F)c(C#N)c2)c(C)n1C` [Example 9, methyl (2-(4-((3-cyano-4-fluorophenyl)carbamoyl)-1,3,5-trimethyl-1H-pyrrole-2-yl)-2-oxoacetylamino)-2-methylpropionate], the EC50 in data set [1] is 0.01 to 0.05 µM; with HBV DNA in HepAD38 cells, below 0.01 µM. Besides, the CC50 at 6 days in data set [3] and in data set [4] was above 100 µM in each case. In data set [6], the concentration in solution (solubility at 16 h) came to 9.6 µM (≈ 4.25 µg/mL).

`Cc1c(C(=O)Nc2ccc(F)c(C#N)c2)c(Br)n(C)c1C(=O)C(=O)NC(C)(C)C` [Example 15, 2-bromo-5-(2-(tert-butylamino)-2-oxoacetyl)-N-(3-cyano-4-fluorophenyl)-1,4-dimethyl-1H-pyrrole-3-carboxamide]: the EC50 in data set [1] is 0.01 to 0.05 µM; in the data set with HBV DNA in HepAD38 cells, below 0.01 µM. Further, the CC50 at 6 days in data set [3] is above 100 µM. Further, in data set [6], the solubility at 16 h was determined as 4.9 µM (≈ 2.27 µg/mL).

For the molecule `Cc1c(C(=O)Nc2ccc(F)c(C#N)c2)c(Cl)n(C)c1C(=O)C(=O)NC(C)(C)C` [Example 17, 5-(2-(tert-butylamino)-2-oxoacetyl)-2-chloro-N-(3-cyano-4-fluorophenyl)-1,4-dimethyl-1H-pyrrole-3-carboxamide], in data set [1], the EC50 lay in the range of 0.01 to 0.05 µM. In addition, the CC50 at 6 days in data set [3] and in data set [4] was above 100 µM in each case. Also, the “Remaining (%) at 60 min” value was determined as 47.4% in data set [7] and 44.9% in data set [5].

Take `Cc1c(C(=O)Nc2ccc(F)c(C#N)c2)c(C)n(C)c1C(=O)C(=O)NC1(C)CCOCC1` [Example 24, N-(3-cyano-4-fluorophenyl)-1,2,4-trimethyl-5-(2-((4-methyltetrahydro-2H-pyran-4-yl)amino)-2-oxoacetyl)-1H-pyrrole-3-carboxamide]: the EC50 (in data set [1]; with HBV DNA in HepAD38 cells) was below 0.01 µM in each case. Further, the CC50 at 6 days in data set [3] and in data set [4] was above 100 µM throughout.

Regarding `Cc1c(C(=O)Nc2ccc(F)c(C#N)c2)c(C)n(C)c1C(=O)C(=O)NC1(CO)COC1` [Example 26], the EC50 (in data set [1]; with HBV DNA in HepAD38 cells) was 0.05 to 0.1 µM throughout. Further, the CC50 at 6 days in data set [3] and in data set [4] was above 100 µM throughout.

As to `Cc1c(C(=O)Nc2ccc(F)c(C#N)c2)c(C)n(C)c1C(=O)C(=O)NC1(CO)CC1` [Example 27, N-(3-cyano-4-fluorophenyl)-5-(2-((1-(hydroxymethyl)cyclopropyl)amino)-2-oxoacetyl)-1,2,4-trimethyl-1H-pyrrole-3-carboxamide], the EC50 (in data set [1]; in the data set with HBV DNA in HepAD38 cells) was 0.01 to 0.05 µM in each case. Further, the CC50 at 6 days in data set [3] and in data set [4] was above 100 µM throughout.

On to `Cc1c(C(=O)Nc2ccc(F)c(C#N)c2)c(Cl)n(C)c1C(=O)C(=O)N[C@@H](C)C(F)(F)F` [Example 29, (S)-2-chloro-N-(3-cyano-4-fluorophenyl)-1,4-dimethyl-5-(2-oxo-2-((1,1,1-trifluoroprop-2-yl)amino)acetyl)-1H-pyrrole-3-carboxamide], for which the EC50 in data set [1] was 0.01 to 0.05 µM; in the data set on HBV DNA in HepAD38 cells, below 0.01 µM. The “Remaining (%) at 60 min” value was 99.6% in data set [2], 99.2% in data set [7] and 88.7% in data set [5]. The CC50 at 6 days in data set [3] and in data set [4] was above 100 µM throughout.

For the molecule `Cc1c(C(=O)Nc2ccc(F)c(C#N)c2)c(Cl)n(C)c1C(=O)C(=O)N[C@H](C)C(F)(F)F` [Example 30, (R)-2-chloro-N-(3-cyano-4-fluorophenyl)-1,4-dimethyl-5-(2-oxo-2-((1,1,1-trifluoroprop-2-yl)amino)acetyl)-1H-pyrrole-3-carboxamide], the EC50 in data set [1] was below 0.01 µM; in the data set on HBV DNA in HepAD38 cells, 0.01 to 0.05 µM. The CC50 at 6 days in data set [3] and in data set [4] was above 100 µM in each case.

Turning to `Cc1c(C(=O)Nc2ccc(F)c(N)c2)c(C)n(C)c1C(=O)C(=O)N[C@@H](C)C(F)(F)F` [Example 42, (S)—N-(3-amino-4-fluorophenyl)-1,2,4-trimethyl-5-(2-oxo-2-((1,1,1-trifluoroprop-2-yl)amino)acetyl)-1H-pyrrole-3-carboxamide], the EC50 was below 0.01 µM in data set [1] and 0.01 to 0.05 µM in the data set with HBV DNA in HepAD38 cells. The “Remaining (%) at 60 min” value was found to be 102% in data set [2], 61.9% in data set [7] and 85.3% in data set [5]. The same molecule came in with a CC50 at 6 days in data set [4] above 100 µM.

In the case of `Cc1c(C(=O)Nc2ccc(F)c(C#N)c2)c(C)n(C)c1C(=O)C(=O)NC1(C)CS(=O)(=O)C1` [Example 45, N-(3-cyano-4-fluorophenyl)-1,2,4-trimethyl-5-(2-((3-methyl-1,1-dioxidothietan-3-yl)amino)-2-oxoacetyl)-1H-pyrrole-3-carboxamide], the values for the EC50 (in data set [1]; in the data set with HBV DNA in HepAD38 cells) were below 0.01 µM and 0.01 to 0.05 µM, respectively. Also, the “Remaining (%) at 60 min” value worked out at 73% in data set [2] and 47% in data set [5].

The EC50 is the concentration that produces a half-maximal response. Usually CC50 stands for the concentration that lowers cell viability or growth by half. A word on the solubility: it is the concentration that dissolves in the medium under given conditions. Higher therefore signals a readily soluble substance.

These data come from patent US12116356B2, “N-heterocyclic five-membered ring-containing capsid protein assembly inhibitor, pharmaceutical composition thereof, and use thereof” (CHIA TAI TIANQING PHARMACEUTICAL GROUP CO., LTD., priority 2018, dated 2024).
